In PubChem BioAssay (NCI):
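Cells were grown in 96-well plates and exposed to each compound for 48 hours at five concentrations; endpoints were interpolated linearly between bracketing concentrations, or set to the highest concentration if not reached. The concentration for full growth arrest is given as TGI.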

Legend:
Assay in all cases: inhibition of tumour cell growth, NCI panel, 48 h
HT29 colon = test system: HT29 colon
OVCAR-8 ovarian = test system: OVCAR-8 ovarian
U251 CNS = test system: U251 CNS
SK-OV-3 ovarian = test system: SK-OV-3 ovarian
A498 renal = test system: A498 renal
MDA-MB-435 = test system: MDA-MB-435
SK-MEL-28 melanoma = test system: SK-MEL-28 melanoma
IGROV1 ovarian = test system: IGROV1 ovarian
SF-268 CNS = test system: SF-268 CNS
SK-MEL-5 melanoma = test system: SK-MEL-5 melanoma
COLO 205 colon = test system: COLO 205 colon
786-0 renal = test system: 786-0 renal
MALME-3M melanoma = test system: MALME-3M melanoma
SW-620 colon = test system: SW-620 colon
HS 578T breast = test system: HS 578T breast
K-562 leukemia = test system: K-562 leukemia
HL-60(TB) leukemia = test system: HL-60(TB) leukemia
CAKI-1 renal = test system: CAKI-1 renal
HCC-2998 colon = test system: HCC-2998 colon
NCI-H226 lung = test system: NCI-H226 lung
MOLT-4 leukemia = test system: MOLT-4 leukemia
OVCAR-5 ovarian = test system: OVCAR-5 ovarian
M14 melanoma = test system: M14 melanoma
NCI-H460 lung = test system: NCI-H460 lung
SK-MEL-2 melanoma = test system: SK-MEL-2 melanoma
MDA-MB-231 breast = test system: MDA-MB-231 breast
HCT-116 colon = test system: HCT-116 colon
OVCAR-4 ovarian = test system: OVCAR-4 ovarian
DU-145 prostate = test system: DU-145 prostate
TK-10 renal = test system: TK-10 renal
HOP-62 NSCLC = test system: HOP-62 NSCLC
ACHN renal = test system: ACHN renal
MCF7 breast = test system: MCF7 breast
SN12C renal = test system: SN12C renal
CCRF-CEM leukemia = test system: CCRF-CEM leukemia
RXF 393 renal = test system: RXF 393 renal
KM12 colon = test system: KM12 colon
UO-31 renal = test system: UO-31 renal
SR leukemia = test system: SR leukemia
SNB-19 CNS = test system: SNB-19 CNS
UACC-62 melanoma = test system: UACC-62 melanoma
A549 NSCLC = test system: A549 NSCLC
OVCAR-3 ovarian = test system: OVCAR-3 ovarian
UACC-257 melanoma = test system: UACC-257 melanoma
NCI-H23 lung = test system: NCI-H23 lung
EKVX NSCLC = test system: EKVX NSCLC
SF-295 CNS = test system: SF-295 CNS
SF-539 CNS = test system: SF-539 CNS
T-47D breast = test system: T-47D breast
SNB-75 CNS = test system: SNB-75 CNS
MDA-N = test system: MDA-N
HCT-15 colon = test system: HCT-15 colon
RPMI-8226 leukemia = test system: RPMI-8226 leukemia
NCI-H522 lung = test system: NCI-H522 lung
NCI/ADR-RES ovarian = test system: NCI/ADR-RES ovarian
LOX IMVI melanoma = test system: LOX IMVI melanoma
PC-3 prostate = test system: PC-3 prostate

## CCOC(=O)C(C#N)C1=CC(=O)C(=O)c2ccc(OC)cc21 (configuration not stated)
HT29 colon
  TGI: 94.2 µM
OVCAR-8 ovarian
  TGI: 54.4 µM
U251 CNS
  TGI: 72.5 µM
SK-OV-3 ovarian
  TGI: 56.7 µM
A498 renal
  TGI: 58.9 µM
MDA-MB-435
  TGI: 35.4 µM
SK-MEL-28 melanoma
  TGI: 41.4 µM
IGROV1 ovarian
  TGI: 35.2 µM
SF-268 CNS
  TGI: > 100 µM
SK-MEL-5 melanoma
  TGI: 28.8 µM
COLO 205 colon
  TGI: 32.3 µM
786-0 renal
  TGI: 64.9 µM
MALME-3M melanoma
  TGI: 31 µM
SW-620 colon
  TGI: 33.3 µM
HS 578T breast
  TGI: 53.4 µM
K-562 leukemia
  TGI: > 100 µM
HL-60(TB) leukemia
  TGI: > 100 µM
CAKI-1 renal
  TGI: 72.2 µM
HCC-2998 colon
  TGI: 29.8 µM
NCI-H226 lung
  TGI: 49.7 µM
MOLT-4 leukemia
  TGI: > 100 µM
OVCAR-5 ovarian
  TGI: 40.5 µM
M14 melanoma
  TGI: 29.8 µM
NCI-H460 lung
  TGI: 58.6 µM
SK-MEL-2 melanoma
  TGI: 28.1 µM
MDA-MB-231 breast
  TGI: 29.1 µM
HCT-116 colon
  TGI: 44.8 µM
OVCAR-4 ovarian
  TGI: 33.7 µM
DU-145 prostate
  TGI: 38.2 µM
TK-10 renal
  TGI: > 100 µM
HOP-62 NSCLC
  TGI: 51.7 µM
ACHN renal
  TGI: 30.9 µM
MCF7 breast
  TGI: 31.4 µM
SN12C renal
  TGI: 33.8 µM
CCRF-CEM leukemia
  TGI: > 100 µM
RXF 393 renal
  TGI: 47.5 µM
KM12 colon
  TGI: 41.3 µM
UO-31 renal
  TGI: 32 µM
SR leukemia
  TGI: > 100 µM
SNB-19 CNS
  TGI: 54.8 µM
UACC-62 melanoma
  TGI: 28.5 µM
A549 NSCLC
  TGI: 41 µM
OVCAR-3 ovarian
  TGI: 47.5 µM
UACC-257 melanoma
  TGI: 31.1 µM
NCI-H23 lung
  TGI: 30.6 µM
EKVX NSCLC
  TGI: 51.8 µM
SF-295 CNS
  TGI: 58.3 µM
SF-539 CNS
  TGI: 33.5 µM
T-47D breast
  TGI: 34.5 µM
SNB-75 CNS
  TGI: 58.5 µM
MDA-N
  TGI: 17.1 µM
HCT-15 colon
  TGI: 59.8 µM
RPMI-8226 leukemia
  TGI: > 100 µM
NCI-H522 lung
  TGI: 18.7 µM
NCI/ADR-RES ovarian
  TGI: 51.3 µM
LOX IMVI melanoma
  TGI: 40.7 µM
PC-3 prostate
  TGI: 77 µM
